The numbers were not newly measured in patent publication US9006272B2, “Pharmaceutical compositions and method for treating inflammation in cattle and other animals” (Intervet Inc., priority 2006, dated 2015), which cites them from elsewhere.

For this data set the following is noted: background statement.

`Cc1c(Nc2ncccc2C(=O)O)cccc1C(F)(F)F` [flunixin meglumine]: the lipid solubility result is “very poor”.
